Test results taken from patent US10385061B2, “Medicarpin, its derivatives, manufacturing method thereof” (PhytoHealth Corporation, priority 2016, dated 2019).
Where two headings read alike, the source gives them in different places.

Experiments:
[1] = test system: dox-induced cardiomyopathic mice; settings: for EF (Ejection fraction) / FS (Fractional shortening) / IVS; d / IVS; s / LVID; d / LVID; s / LVPW; d / LVPW; s: week 3, mean±SEM
Experimental: C57BL/6J male mice (6 to 8 weeks old) were injected intraperitoneally with triple dose of 5, 5, or 8 mg/kg doxorubicin-HCl (Sigma-Aldrich), respectively. In control group, the mice (n=6) were injected intraperitoneally with saline. 1 week after injection, the degree of heart failure was determined by the increase of S-T segment in electrocardiogram, and then the mice were randomly reclassified into the control group (Dox/Ctrl, n=9) and experimental group (Dox+Med) (FIG. 9). In the experimental group, the mice were fed a diet containing 10, 30, or 90 mg/kg/day medicarpin, respectively. Each experiment group consisted of 7 mice. After feedings, the mice were subjected to the rotarod endurance test, echocardiography and electrocardiogram.
The mice from all treatment groups were anaesthetized with isoflurane (0.75-1.5% inhalation); and echocardiographic measurements were taken in M-mode in triplicate for each mouse using an ATL HDI 5000 ultrasound system (Philips Medical Systems, ATL Ultrasound, Bothell, Wash., USA).

[2] = test system: erythroid progenitor cells; assay: Hemoglobin colorimetric assay of bone marrow cells (erythroid progenitor differentiation); assay type: cell-based, mouse; settings: low concentration (0.1 to 10 μg/mL), 96 hours, A610
Experimental: C57BL/6J male mice (6 weeks old) were used in this Example to collect bone marrow cells. The hind legs were of mice were obtained to remove excess flesh from the leg bone and cut off the ends of the bones. The bones were flushed with α-MEM medium using 23-gauge needle to elute bone marrow cells, and then filtrated by No. 53 nylon mesh filter to obtain the bone marrow cells solution.
96-well plates (U-bottom shape) were centrifuged at 1200 rpm (Kubota 6800) at 25° C. for 5 minutes. After centrifugation, the supernatant was removed and the bone marrow cells were mixed equally with 50 μL lysis buffer (0.01% NP-40) for 10 minutes. Then, 150 μL of 500 μM DAF (2,7-Diaminofluorene, Sigma-Aldrich) solution and 6 μL of 30% H2O2 were added and treated with the bone marrow cells for 5 minutes, and absorbance at 610 nm (A610) was determined. Student's t-test were used to compare data.

[3] = test system: cisplatin-induced nephropathic mice; assay: Cisplatin-induced nephropathic mice model; assay type: in vivo
Experimental: C57BL/6J male mice (8 to 10 weeks old) were injected i.p. (Intraperitoneal) with three doses of cisplatin (CDDP) (Sigma-Aldrich), following the scheme of 7, 6 and 7 mg/kg body weight, at 1, 5, 10 day, and the normal group (n=6) was injected with saline. On day 12, serum samples were collected and assayed for blood urea nitrogen content (BUN). Mice with BUN values greater than 100 mg/100 mL were chosen for the experiment. […] The mice were (BUN=80-300 mg/dL) subsequently divided randomly into four cohorts comprising the control and three medicarpin-treated groups, medicarpin 10, 30, 90 mg/kg/day (CDDP+Med 10, CDDP+Med 30, CDDP+Med 90) (n=6 for each group) for an additional 2 weeks. Blood samples from all the mice were collected on day 12. The red blood cell (RBC) numbers were determined from the complete blood cell count using a Sysmex Kx-21 haematology analyser (Sysmex America Inc., Mundelein, Ill., USA), and the serum BUN levels were determined through the urease GLDH method using a commercial kit (DiaSys Diagnostic System GmbH, Frankfurt, Germany). The administration and blood collection schedules were carried out according to the FIG. 4. […] However, the number of RBC in control group without medicarpin treatment was still low. […] The number of WBCs was recovered in the mice after 2 week of medicarpin treatment. […] Similarly, the number of platelet (PLT) also was decreased by cisplatin. […] (FIG. 5D).
One month after treatment of medicarpin, the expression of EPO was increased in liver (FIG. 7A) and kidney (FIG. 7B) of mice.

doxorubicin-induced mice = assay: Treadmill endurance assessment under normoxic or hypoxic conditions; assay type: in vivo; settings: 3 weeks administration, normoxic and hypoxic (8% O2) conditions, dose-dependent
Experimental: Before being divided into treatment groups, 8 to 10 week-old C57B1/6J male mice were trained on a treadmill for a maximum of 10 min for each of three consecutive training sessions per day for 3 days. […] On the testing day, each mouse was subjected to three trials on the treadmill at under a normoxic or hypoxic (8% O2) atmosphere. The endurance performance was measured over time until the mice suffered from electric shock over 35 times/min (electric shock system is on the end of the treadmill). The maximum trial length was 60 min and there was a 30-min rest period between each trial. (Table 2)

For (+)-Medicarpin, the “prolonged S-T interval” value ([1]; 90 mg/kg/day, one week after treatment, electrocardiogram) was “improved”, the “ejection fractions and fractional shortening” value ([1]; 30 and 90 mg/kg, vs doxorubicin alone) was “significantly greater” and the “EF (Ejection fraction)” value ([1]; Dox + Med10 (10 mg/kg/day)) was 58.44 ± 2.55%. For the same substance, the “FS (Fractional shortening)” value ([1]; Dox + Med10 (10 mg/kg/day)) was 30.32 ± 1.56%, the “IVS; d” value ([1]; Dox + Med10 (10 mg/kg/day)) was 0.85 ± 0.03 mm and the “IVS; s” value ([1]; Dox + Med10 (10 mg/kg/day)) was 1.20 ± 0.03 mm. For the same substance, the “LVID; d” value ([1]; Dox + Med10 (10 mg/kg/day)) was 3.70 ± 0.34, the “LVID; s” value ([1]; Dox + Med10 (10 mg/kg/day)) was 2.58 ± 0.27 and the “LVPW; d” value ([1]; Dox + Med10 (10 mg/kg/day)) was 0.69 ± 0.10. For the same substance, the “LVPW; s” value ([1]; Dox + Med10 (10 mg/kg/day)) was 1.00 ± 0.07, the “EF (Ejection fraction)” value ([1]; Dox + Med30 (30 mg/kg/day)) was 75.07 ± 2.29% and the “FS (Fractional shortening)” value ([1]; Dox + Med30 (30 mg/kg/day)) was 43.04 ± 2.03 %. For the same substance, the “IVS; d” value ([1]; Dox + Med30 (30 mg/kg/day)) was 0.81 ± 0.04 mm, the “IVS; s” value ([1]; Dox + Med30 (30 mg/kg/day)) was 1.19 ± 0.02 mm and the “LVID; d” value ([1]; Dox + Med30 (30 mg/kg/day)) was 3.33 ± 0.07. The “LVID; s” value ([1]; Dox + Med30 (30 mg/kg/day)) was 1.89 ± 0.06, the “LVPW; d” value ([1]; Dox + Med30 (30 mg/kg/day)) was 0.74 ± 0.04 and the “LVPW; s” value ([1]; Dox + Med30 (30 mg/kg/day)) was 1.26 ± 0.07. For the same substance, the “EF (Ejection fraction)” value ([1]; Dox + Med90 (90 mg/kg/day)) was 72.92 ± 2.72%, the “FS (Fractional shortening)” value ([1]; Dox + Med90 (90 mg/kg/day)) was 41.19 ± 2.07 % and the “IVS; d” value ([1]; Dox + Med90 (90 mg/kg/day)) was 0.86 ± 0.05 mm. The “IVS; s” value ([1]; Dox + Med90 (90 mg/kg/day)) was 1.29 ± 0.09 mm, the “LVID; d” value ([1]; Dox + Med90 (90 mg/kg/day)) was 3.30 ± 0.11 and the “LVID; s” value ([1]; Dox + Med90 (90 mg/kg/day)) was 1.94 ± 0.12. The “LVPW; d” value ([1]; Dox + Med90 (90 mg/kg/day)) was 0.77 ± 0.06, the “LVPW; s” value ([1]; Dox + Med90 (90 mg/kg/day)) was 1.15 ± 0.08 and the “expression of EPO in kidney and heart” value ([1]; doxorubicin-induced mice) was “recovered and increased”. For the same substance, the “cardiomyocytes atrophy or hypertrophy, cytoplasmic vacuolization, myofibrillar loss, myocardial fibrosis (histology)” value ([1]; middle-high dosed treatment) was “significantly ameliorated”, the “left ventricular posterior wall thickness (LVPWs)” value ([1]; middle-high doses) was “increased” and the “influence to renal function” value ([1]; mouse, in vivo) was “no influence”. The “heart rate (beats per second)” value ([1]; three weeks after treatment) was “recovered to normal”, the “differentiation of erythroid progenitor cells” value [2] was “enhanced” and the BUN levels ([3]; 30 and 90 mg/kg treatment groups) was “significantly recovered”. For the same substance, the “recovery of anaemia (RBC number)” value ([3]; 30 and 90 mg/kg, day 33) was “almost complete recovery”, the “white blood cell (WBC) number” value ([3]; 30 and 90 mg/kg, week 3 to 4) was “significant recovery” and the renal function ([3]; 30 or 90 mg/kg) was “accelerated the recovery”. The “amount of hemoglobin and number of functional RBC” value ([3]; high-middle dose) was “increased”, the renal function ([3]; low-dose 10 mg/kg) was “could not improve” and the “HGF expression in liver” value ([3]; one month after treatment) was “increase”. For the same substance, the “expression of EPO in liver and kidney” value ([3]; one month after treatment) was “increased”, the “number of platelet (PLT)” value ([3]; vs CDDP/Ctrl group after its recovery from cisplatin) was “no significant difference” and the “endurance performance to exhaustion” value (doxorubicin-induced mice) was “enhanced”.
